Values of other authors in patent US9775855B2, “Compositions comprising macrolide and tetracycline and their uses” (priority 2011, dated 2017).
Read-outs that look alike come from different tables or passages of the source.

Key:
[1] = room temperature
[2] = not given; remark: listed apart in the source
[3] = individuals treated for acne for an average of 9 months

## CO[C@H]1/C=C/O[C@@]2(C)Oc3c(C)c(O)c4c(O)c(c(/C=N/N5CCN(C)CC5)c(O)c4c3C2=O)NC(=O)/C(C)=C\C=C\[C@H](C)[C@H](O)[C@@H](C)[C@@H](O)[C@@H](C)[C@H](OC(C)=O)[C@@H]1C [Rifampin, 3-[[(4-methyl-1-piperazinyl)imino]-methyl]-rifamycin]
At neutral pH
  solubility in water: very slightly soluble

## NC(=O)c1cnccn1 [Pyrazinamide, pyrazinecarboxamide]
other
  solubility in water: sparingly soluble
[1]
  stability: stable at room temperature

## CN(C)c1ccc(O)c2c1C[C@H]1C[C@H]3[C@H](N(C)C)C(O)=C(C(N)=O)C(=O)[C@@]3(O)C(O)=C1C2=O [Minocycline]
[2]; human beings, compared with doxycycline and other tetracyclines
  penetration of the cerebral spinal fluid (CSF): better than doxycycline and other tetracyclines
[2]; in vivo
  crossing the blood-brain barrier: capable of crossing the blood-brain barrier
[3]
  frequency of adverse events: one in a million

## NNC(=O)c1ccncc1 [Isoniazid, 4-pyridinecarboxylic acid, hydrazide]
other
  solubility in water: freely soluble
